Test results: patent US20230293525A1, “METHODS AND COMPOSITIONS FOR THE TREATMENT OF VIRAL INFECTIONS” (priority 2020, published 2023)

System: minor spliceosome snRNAs including U11, U12, U6atac, and U4atac
Experiment: qPCR of minor spliceosome snRNAs in HEK 293 cells treated with Tenovin 1
Assay type: cell-based
Conditions: 10 μM, incubated 24 hours, qPCR normalized to RN7SK, versus DMSO

CC(=O)Nc1ccc(NC(=S)NC(=O)c2ccc(C(C)(C)C)cc2)cc1 [Tenovin 1]
levels of minor spliceosome snRNAs U11, U12, U6atac and U4atac (qPCR): successfully downregulates
